In BindingDB's records for patent US20250304563 (Orum Therapeutics, 2025) one finds IC50 data, which are given here for 1 compound.

The assay addresses T1, Isoform Truncated 1 of E3 ubiquitin-protein ligase CBL-B [36-427] (Homo sapiens, UniProt Q13191).
T1 construct: 36-427
The assay is described as follows: Binding Affinity of Example 1 Compounds to Cbl-b Protein. Here is the method: Compounds were assessed for binding activity to Cbl-b by their ability to compete with and displace a probe comprised of BODIPY-FL fluorophore conjugated to a Cbl-b inhibitor (see Example 54 in WO2020264398). In the assay, a 36-427 aa truncated form of Cbl-b with an N-terminus Avi-tag was incubated 20 mM HEPES pH 7.5, 150 mM NaCl, 0.01% Triton X-100, 0.1% BSA, 0.5 mM TCEP buffer with streptavidin-terbium (Cisbio). After one hour of incubation at room temperature, 1 uM each of fluorescent probe and compound were combined with the reaction mixture. Compounds with Cbl-b binding activity competitively displace the fluorophore tagged inhibitor thereby disrupting the FRET signal from the terbium-BODIPY-FL complex. The reaction mixtures were incubated for one additional hour at room temperature to allow for competition between inhibitor and candidate compounds to occur. The time resolved FRET (TR-FRET) signal was then read at 520/620 […] ([…]) using a Spectramax M5e plate reader (Molecular Devices) to measure probe displacement. Compounds with Cbl-b binding activity had decreased FRET signal owing to disruption of the terbium-BODIPY-FL FRET complex. Standard methods in PRISM were used to calculate the compound IC50 values from the experimental data.

SMILES strings stand for the structures.

In the case of `CCSc1cc(C2(Cc3nncn3C)COC2)cc(N2CC3C(C(N)=O)=CC(CN4CCC[C@H](C)C4)=CC3C2=O)n1` (stereo partly specified) [US20250304563, Compound 145], the IC50 result is “in the range around 12.5 nM”.

One may read the IC50 as the concentration needed to halve the response being measured.
